IC50 data for 23 molecules are collected here from US11866430B2, “Naphthyridinone compounds useful as T cell activators” (priority 2018, dated 2024).

Read-outs that look alike come from different tables or passages of the source.

Test [1] has as its system pre-activated CD4 T cells and Raji cells. The test is described as follows: Raji CD4 T Cell IL2 Assay. The format is cell-based.
In test [2] the target is human DGKζ (Homo sapiens (Human), UniProt Q13574). Kind of test: DGKζ assay (detergent/lipid micelle substrate). The format is biochemical. Particulars: detergent/lipid micelle substrate; read-out: DGKζ IC50. In a few lines: (§1)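 Full-length human DGKα or DGKζ (C-terminal His tag, Sf9-expressed; 20 nM 4× stock) was preincubated 10 min at room temperature with PS/DAG octyl glucoside micelles in MOPS pH 7.5 buffer with MgCl2, CaCl2 and DTT. It was then started with ATP (300 uM addition) and run for 1 hr, with ADP-Glo luminescence read-out.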
Chain of human DGKζ (Q13574 other isoform, or with tags, fused parts or gaps): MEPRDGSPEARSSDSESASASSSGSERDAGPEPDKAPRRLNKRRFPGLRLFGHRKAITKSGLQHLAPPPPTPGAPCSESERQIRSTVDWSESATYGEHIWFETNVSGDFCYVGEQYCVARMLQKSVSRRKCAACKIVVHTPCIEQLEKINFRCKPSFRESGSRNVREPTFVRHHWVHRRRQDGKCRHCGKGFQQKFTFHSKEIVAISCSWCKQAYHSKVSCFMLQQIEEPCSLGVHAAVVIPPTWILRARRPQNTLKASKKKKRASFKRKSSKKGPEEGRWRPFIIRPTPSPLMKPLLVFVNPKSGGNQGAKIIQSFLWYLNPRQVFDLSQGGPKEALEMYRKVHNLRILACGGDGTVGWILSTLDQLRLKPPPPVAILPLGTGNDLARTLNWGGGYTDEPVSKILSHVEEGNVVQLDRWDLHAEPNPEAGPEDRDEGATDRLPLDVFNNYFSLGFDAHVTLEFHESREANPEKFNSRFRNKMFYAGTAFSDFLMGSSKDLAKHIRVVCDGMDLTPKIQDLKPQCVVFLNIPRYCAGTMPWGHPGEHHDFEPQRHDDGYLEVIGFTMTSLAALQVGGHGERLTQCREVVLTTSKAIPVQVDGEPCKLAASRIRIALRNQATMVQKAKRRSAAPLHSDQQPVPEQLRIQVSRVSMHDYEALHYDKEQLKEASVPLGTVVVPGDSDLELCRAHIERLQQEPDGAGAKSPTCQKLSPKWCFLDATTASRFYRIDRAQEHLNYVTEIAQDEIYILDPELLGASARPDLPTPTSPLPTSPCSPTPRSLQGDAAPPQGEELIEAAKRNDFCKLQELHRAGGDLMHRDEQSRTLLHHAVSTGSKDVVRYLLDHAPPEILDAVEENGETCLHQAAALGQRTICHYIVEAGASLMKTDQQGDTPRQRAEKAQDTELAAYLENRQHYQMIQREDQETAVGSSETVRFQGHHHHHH

Test [3] concerns the target human DGKα (Homo sapiens (Human), UniProt P23743). The test is described as follows: biochemical. The conditions noted are these: detergent/lipid micelle substrate; read-out: DGKα IC50. In a few lines:
as §1

Chain of human DGKα (P23743 other isoform, or with tags, fused parts or gaps): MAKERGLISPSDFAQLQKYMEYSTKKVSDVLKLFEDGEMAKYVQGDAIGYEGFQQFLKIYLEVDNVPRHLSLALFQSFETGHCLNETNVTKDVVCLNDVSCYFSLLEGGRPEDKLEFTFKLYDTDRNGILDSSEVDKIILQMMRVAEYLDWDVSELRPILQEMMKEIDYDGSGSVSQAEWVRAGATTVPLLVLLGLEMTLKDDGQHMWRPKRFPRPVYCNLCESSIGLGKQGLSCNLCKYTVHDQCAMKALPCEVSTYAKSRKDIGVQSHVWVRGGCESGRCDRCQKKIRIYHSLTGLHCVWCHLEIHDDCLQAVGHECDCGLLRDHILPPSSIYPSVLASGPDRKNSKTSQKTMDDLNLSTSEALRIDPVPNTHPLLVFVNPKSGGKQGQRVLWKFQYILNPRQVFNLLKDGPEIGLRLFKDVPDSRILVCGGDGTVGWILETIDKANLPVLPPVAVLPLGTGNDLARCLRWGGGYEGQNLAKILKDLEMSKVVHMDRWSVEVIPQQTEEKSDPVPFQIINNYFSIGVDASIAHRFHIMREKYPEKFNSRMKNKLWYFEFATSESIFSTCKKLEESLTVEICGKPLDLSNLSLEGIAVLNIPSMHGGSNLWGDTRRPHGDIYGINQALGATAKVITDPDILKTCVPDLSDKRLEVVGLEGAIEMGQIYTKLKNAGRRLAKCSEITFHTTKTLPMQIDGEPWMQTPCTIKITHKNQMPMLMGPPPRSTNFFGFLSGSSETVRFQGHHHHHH

As usually defined, the IC50 is the midpoint of a concentration-inhibition curve. As to `COc1cccc(C)c1C(c1ccc(F)cc1)N1CCN(c2c([N+](=O)[O-])c(=O)n(C)c3ccc(Br)nc23)CC1` (single isomer, unassigned) [Example 61, 6-bromo-4-(4-((4-fluorophenyl)(2-methoxy-6-methylphenyl)methyl)piperazin-1-yl)-1-methyl-3-nitro-1,5-naphthyridin-2(1H)-one], the IC50 in test [1] worked out at 56 nM; in test [2], 2200 nM; in test [3] it was 4400 nM.
Regarding `Cn1c(=O)c(C#N)c(N2CCN(C3(c4ccc(F)cc4)CC3)CC2)c2nc(Cl)ccc21` [Example 421, 6-chloro-4-{4-[1-(4-fluorophenyl)cyclopropyl]piperazin-1-yl}-1-methyl-2-oxo-1,2-dihydro-1,5-naphthyridine-3-carbonitrile], the IC50 in test [1] (Homo sapiens, Raji) is 2800 nM; in test [2], greater than 240000 nM; in test [3], 69000 nM.
In the same order, the values of `Cc1ccc2c(n1)c(N1CCN(C(c3ccc(F)cc3)c3ccc(F)cc3)CC1)cc(=O)n2C` [Example 427, 4-{4-[bis(4-fluorophenyl)methyl]piperazin-1-yl}-1,6-dimethyl-1,2-dihydro-1,5-naphthyridin-2-one] are 2400 nM, greater than 240000 nM and 150000 nM.
Turning to `COCCn1c(=O)c([N+](=O)[O-])c(N2CCN(C(C)c3ccc(F)cc3)CC2)c2nc(C#N)ccc21` (single isomer, unassigned) [Example 150, 8-(4-(1-(4-fluorophenyl)ethyl)piperazin-1-yl)-5-(2-methoxyethyl)-7-nitro-6-oxo-5,6-dihydro-1,5-naphthyridine-2-carbonitrile], the IC50 in test [1] worked out at 510 nM; in test [2], 88000 nM; in test [3], 73000 nM.
Consider `C#CCn1c(=O)c([N+](=O)[O-])c(N2CCN(C(c3ccc(F)cc3)C3CC3)CC2)c2nc(C#N)ccc21` (single isomer, unassigned) [Example 144, 8-(4-(cyclopropyl(4-fluorophenyl)methyl)piperazin-1-yl)-7-nitro-6-oxo-5-(prop-2-yn-1-yl)-5,6-dihydro-1,5-naphthyridine-2-carbonitrile], for which the IC50 amounted to 20 nM in test [1] (Homo sapiens, Raji); 7900 nM in test [2]; 530 nM in test [3].
`Cn1c(=O)c(C#N)c(N2CCN(Cc3cccc(Cl)c3O)CC2)c2nc(Br)ccc21` [Example 278, 6-bromo-4-{4-[(3-chloro-2-hydroxyphenyl)methyl]piperazin-1-yl}-1-methyl-2-oxo-1,2-dihydro-1,5-naphthyridine-3-carbonitrile]: the IC50 was 87 nM in test [1] (Homo sapiens, Raji); greater than 81000 nM in test [2]; 350 nM in test [3].
In the same order, the values of `Cn1c(=O)c(C#N)c(N2CCN(Cc3ccc(F)c(F)c3)CC2)c2nc(Cl)ccc21` [Example 319, 6-chloro-4-{4-[(3,4-difluorophenyl)methyl]piperazin-1-yl}-1-methyl-2-oxo-1,2-dihydro-1,5-naphthyridine-3-carbonitrile] are 300 nM, 220000 nM and 550 nM.
In the same order, the values of `CCn1ccc2c(CN3CCN(c4c(C#N)c(=O)n(C)c5ccc(Cl)nc45)CC3)cccc21` [Example 220, 6-chloro-4-(4-((1-ethyl-1H-indol-4-yl)methyl)piperazin-1-yl)-1-methyl-2-oxo-1,2-dihydro-1,5-naphthyridine-3-carbonitrile] are 63 nM, 89000 nM and 1700 nM.
Regarding `Cn1c(=O)c(C#N)c(N2CCN(Cc3cc(F)cc(Cl)c3)CC2)c2nc(Cl)ccc21` [Example 324, 6-chloro-4-{4-[(3-chloro-5-fluorophenyl)methyl]piperazin-1-yl}-1-methyl-2-oxo-1,2-dihydro-1,5-naphthyridine-3-carbonitrile], the IC50 in test [1] (Homo sapiens, Raji) is 350 nM; in test [2] it was greater than 240000 nM; in test [3], 190 nM.
In the same order, the values of `Cn1c(=O)c(C#N)c(N2CCN(Cc3cccc4cn[nH]c34)CC2)c2nc(Cl)ccc21` [Example 322, 6-chloro-4-{4-[(1H-indazol-7-yl)methyl]piperazin-1-yl}-1-methyl-2-oxo-1,2-dihydro-1,5-naphthyridine-3-carbonitrile] are 320 nM, greater than 240000 nM and 2800 nM.
Turning to `Cn1c(=O)c([N+](=O)[O-])c(N2CCN(C(c3ccccc3)c3ccccc3O)CC2)c2nc(Br)ccc21` (single isomer, unassigned) [Example 79, 6-bromo-4-(4-((2-hydroxyphenyl)(phenyl)methyl)piperazin-1-yl)-1-methyl-3-nitro-1,5-naphthyridin-2(1H)-one], the values for the IC50 in test [1], in test [2] and in test [3] were 67 nM, greater than 81000 nM and 81000 nM, respectively.
For the molecule `COc1ccc(CN2CCN(c3c(C#N)c(=O)n(C)c4ccc(Cl)nc34)CC2)cc1O` [Example 353, 6-chloro-4-{4-[(3-hydroxy-4-methoxyphenyl)methyl]piperazin-1-yl}-1-methyl-2-oxo-1,2-dihydro-1,5-naphthyridine-3-carbonitrile], the IC50 was 1900 nM in test [1] (Homo sapiens, Raji); greater than 240000 nM in test [2]; 65 nM in test [3].
With `Cn1c(=O)c(C#N)c(N2CCN(Cc3cccc(Cl)c3)CC2)c2nc(Cl)ccc21` [Example 302, 6-chloro-4-{4-[(3-chlorophenyl)methyl]piperazin-1-yl}-1-methyl-2-oxo-1,2-dihydro-1,5-naphthyridine-3-carbonitrile], the IC50 was 180 nM in test [1] (Homo sapiens, Raji); greater than 81000 nM in test [2]; 610 nM in test [3].
In the same order, the values of `C#CCn1c(=O)c(C#N)c(N2CCN(Cc3ccccc3C(F)F)CC2)c2nc(Br)ccc21` [Example 64, 6-bromo-4-(4-(2-(difluoromethyl)benzyl)piperazin-1-yl)-2-oxo-1-(prop-2-yn-1-yl)-1,2-dihydro-1,5-naphthyridine-3-carbonitrile] are 55000 nM, 14000 nM and 2700 nM.
The matching figures for `Cc1ccc2c(n1)c(N1CCN(Cc3cccc(Br)c3O)CC1)c(C#N)c(=O)n2C` [Example 286, 4-{4-[(3-bromo-2-hydroxyphenyl)methyl]piperazin-1-yl}-1,6-dimethyl-2-oxo-1,2-dihydro-1,5-naphthyridine-3-carbonitrile]: 100 nM, 140000 nM and 1200 nM.
For `Cn1c(=O)c(C#N)c(N2CCN(Cc3cc(Br)ccc3O)CC2)c2nc(Br)ccc21` [Example 282, 6-bromo-4-{4-[(5-bromo-2-hydroxyphenyl)methyl]piperazin-1-yl}-1-methyl-2-oxo-1,2-dihydro-1,5-naphthyridine-3-carbonitrile], the IC50 in test [1] (Homo sapiens, Raji) was 94 nM; in test [2], greater than 240000 nM; in test [3], 220 nM.
On to `COc1cccc(CN2CCN(c3c(C#N)c(=O)n(C)c4ccc(Cl)nc34)CC2)c1O` [Example 371, 6-chloro-4-{4-[(2-hydroxy-3-methoxyphenyl)methyl]piperazin-1-yl}-1-methyl-2-oxo-1,2-dihydro-1,5-naphthyridine-3-carbonitrile], for which the IC50 in test [1] (Homo sapiens, Raji) was greater than 100000 nM; in test [2], 170000 nM; in test [3] it was 230 nM.
On to `COCCn1c(=O)c(C#N)c(N2CCN(C(c3ccc(F)cc3)c3ccc(F)cc3OC)CC2)c2nc(Br)ccc21` (single isomer, unassigned) [Example 116, 6-bromo-4-(4-((4-fluoro-2-methoxyphenyl)(4-fluorophenyl)methyl)piperazin-1-yl)-1-(2-methoxyethyl)-2-oxo-1,2-dihydro-1,5-naphthyridine-3-carbonitrile], for which the IC50 was 170 nM in test [1], greater than 240000 nM in test [2] and greater than 240000 nM in test [3].
`Cn1c(=O)c(C#N)c(N2CCN(Cc3cc(OC(F)(F)F)ccc3O)CC2)c2nc(Br)ccc21` [Example 270, 6-bromo-4-(4-{[2-hydroxy-5-(trifluoromethoxy)phenyl]methyl}piperazin-1-yl)-1-methyl-2-oxo-1,2-dihydro-1,5-naphthyridine-3-carbonitrile]: the IC50 was 59 nM in test [1] (Homo sapiens, Raji); greater than 240000 nM in test [2]; 190 nM in test [3].
In the same order, the values of `Cn1c(=O)c(C#N)c(N2CCN(Cc3ccc(Br)cc3O)CC2)c2nc(Cl)ccc21` [Example 276, 4-{4-[(4-bromo-2-hydroxyphenyl)methyl]piperazin-1-yl}-6-chloro-1-methyl-2-oxo-1,2-dihydro-1,5-naphthyridine-3-carbonitrile] are 79 nM, greater than 240000 nM and 12 nM.
In the case of `Cn1c(=O)c(C#N)c(N2CCN(CC(O)c3ccc(F)cc3)CC2)c2nc(Br)ccc21` (single isomer, unassigned) [Example 29, 6-bromo-4-{4-[2-(4-fluorophenyl)-2-hydroxyethyl]piperazin-1-yl}-1-methyl-2-oxo-1,2-dihydro-1,5-naphthyridine-3-carbonitrile], the IC50 is 2300 nM in test [1], greater than 240000 nM in test [2] and 570 nM in test [3].
As to `C#CCn1c(=O)c(C#N)c(N2CCN(C(c3ccc(F)cc3)c3ccccc3O)CC2)c2nc(Br)ccc21` (single isomer, unassigned) [Example 106, 6-bromo-4-(4-((4-fluorophenyl)(2-hydroxyphenyl)methyl)piperazin-1-yl)-2-oxo-1-(prop-2-yn-1-yl)-1,2-dihydro-1,5-naphthyridine-3-carbonitrile], the IC50 worked out at 2.4 nM in test [1] (Homo sapiens, Raji); 2000 nM in test [2]; 960 nM in test [3].
The matching figures for `COc1cccc(O)c1CN1CCN(c2c(C#N)c(=O)n(C)c3ccc(Cl)nc23)CC1` [Example 264, 6-chloro-4-{4-[(2-hydroxy-6-methoxyphenyl)methyl]piperazin-1-yl}-1-methyl-2-oxo-1,2-dihydro-1,5-naphthyridine-3-carbonitrile]: 36 nM, greater than 240000 nM and 620 nM.
